The structures appear in SMILES notation.

For one test, the target named is T1, TAK1-TAB1 fusion protein (Homo sapiens, UniProt O43318).
T1 construct: purchased Carna
T1 sequence (O43318 with tags, fused parts or gaps limits assumed): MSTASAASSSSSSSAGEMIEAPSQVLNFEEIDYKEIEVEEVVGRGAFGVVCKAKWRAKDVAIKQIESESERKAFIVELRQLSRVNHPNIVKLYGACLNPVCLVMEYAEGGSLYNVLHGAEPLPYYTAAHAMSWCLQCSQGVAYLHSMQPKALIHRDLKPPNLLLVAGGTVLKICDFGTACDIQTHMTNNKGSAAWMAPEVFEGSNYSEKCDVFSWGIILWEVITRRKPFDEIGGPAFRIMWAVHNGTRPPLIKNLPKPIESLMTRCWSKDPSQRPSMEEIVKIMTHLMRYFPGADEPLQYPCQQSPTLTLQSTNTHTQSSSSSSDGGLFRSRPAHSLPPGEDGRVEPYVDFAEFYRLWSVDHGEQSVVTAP
The experiment in a line: TAK1 biochemical assay (AlphaScreen, GST-MAP2K7 substrate). To be noted: TAK1-TAB1 fusion protein, GST-MAP2K7 substrate; read-out: mean TAK1 IC50 (Col. A).

The subject of a further test is pJNK in HCT-116 cells. Description: Phospho-JNK (Thr183/Tyr185) Meso Scale ELISA assay, TNFα-stimulated HCT-116 cells. It is filed as cell-based. To be noted: Homo sapiens, read-out: mean HCT-116 pJNK ELISA IC50 (Col. B). The procedure, abridged:
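HCT-116 cells in 1% FCS medium were pretreated with compound for 4 hrs at 37° C, then stimulated with TNFα at 10 ng/mL final for 10 minutes. Lysates were taken in ice-cold lysis buffer with phosphatase and protease inhibitors, and phospho-JNK (Thr183/Tyr185) was measured by Meso Scale ELISA.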

The test system of a further test is p-p38 in HCT-116 cells. The experiment in a line: Phospho-p38 Meso Scale ELISA assay, TNFα-stimulated HCT-116 cells. As to conditions: Homo sapiens, read-out: mean HCT-116 p-p38 ELISA IC50 (Col. C). It is filed as cell-based. The essentials: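 HCT-116 cells in 1% FCS medium for 2 h, then compound for 4 h at 37° C, then TNFα at 10 ng/mL final for 10 min. Lysates captured overnight at 4° C and phospho-p38 quantified by Meso Scale electrochemiluminescence ELISA.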

With `Nc1ncc(-c2cnn(C3CNC3)c2)c2cc(-c3csc4cnccc34)oc12` [Example 314, 4-(1-azetidin-3-yl-1H-pyrazol-4-yl)-2-thieno[2,3-c]pyridin-3-yl-furo[2,3-c]pyridin-7-ylamine], the IC50 on TAK1-TAB1 fusion protein was less than 100 nM; in the test on pJNK in HCT-116 cells, 1000 to 10000 nM; in the test on p-p38 in HCT-116 cells it was 100 to 1000 nM.
For `Nc1ncc(-c2cn[nH]c2)c2cc(-c3cccc4cnccc34)oc12` [Example 69, 2-(isoquinolin-5-yl)-4-(1H-pyrazol-4-yl)furo[2,3-c]pyridin-7-amine], in that order: 1000 to 10000 nM, 100 to 1000 nM and 100 to 1000 nM.
For `CC(=O)N1CCC(n2cc(-c3cnc(N)c4oc(-c5cccc6ccnn56)cc34)cn2)CC1` [Example 197, 1-(4-{4-[7-amino-2-(pyrazolo[1,5-a]pyridin-7-yl)furo[2,3-c]pyridin-4-yl]-1H-pyrazol-1-yl}piperidin-1-yl)ethanone], in that order: 100 to 1000 nM, 100 to 1000 nM and 100 to 1000 nM.
`CC(=O)N1CC(n2cc(-c3cnc(N)c4oc(-c5csc6cnccc56)cc34)cn2)C1` [Example 316, 1-{3-[4-(7-amino-2-thieno[2,3-c]pyridin-3-yl-furo[2,3-c]pyridin-4-yl)-pyrazol-1-yl]-azetidin-1-yl}-ethanone]: the IC50 on TAK1-TAB1 fusion protein is less than 100 nM; with pJNK in HCT-116 cells it was 100 to 1000 nM; in the test on p-p38 in HCT-116 cells, 100 to 1000 nM.
Take `CC(=O)N1CCC(n2cc(-c3cnc(N)c4oc(-c5cccc(S(C)(=O)=O)c5)cc34)cn2)CC1` [Example 101, 1-[4-(4-{7-amino-2-[3-(methylsulfonyl)phenyl]furo[2,3-c]pyridin-4-yl}-1H-pyrazol-1-yl)piperidin-1-yl]ethanone]: the IC50 at TAK1-TAB1 fusion protein, with pJNK in HCT-116 cells and with p-p38 in HCT-116 cells was 1000 to 10000 nM throughout.
Consider `CC(C)n1cc(-c2cnc(N)c3oc(-c4cccc5cnccc45)cc23)cn1` [Example 60, 2-(isoquinolin-5-yl)-4-[1-(propan-2-yl)-1H-pyrazol-4-yl]furo[2,3-c]pyridin-7-amine], for which the IC50 on TAK1-TAB1 fusion protein, in the test on pJNK in HCT-116 cells and with p-p38 in HCT-116 cells was 100 to 1000 nM each time.
For `CC(=O)N1CCC(n2cc(-c3cnc(N)c4oc(-c5ccc6c(c5)CCC(=O)N6)cc34)cn2)CC1` [Example 154, 6-{4-[1-(1-acetylpiperidin-4-yl)-1H-pyrazol-4-yl]-7-aminofuro[2,3-c]pyridin-2-yl}-3,4-dihydroquinolin-2(1H)-one], the IC50 at TAK1-TAB1 fusion protein was 100 to 1000 nM; in the test on pJNK in HCT-116 cells it was 1000 to 10000 nM; in the test with p-p38 in HCT-116 cells, 1000 to 10000 nM.
Turning to `CC(=O)N1CCC(n2cc(-c3cnc(N)c4oc(-c5c[nH]c6cc(F)ccc56)cc34)cn2)CC1` [Example 213, 1-(4-{4-[7-amino-2-(6-fluoro-1H-indol-3-yl)furo[2,3-c]pyridin-4-yl]-1H-pyrazol-1-yl}piperidin-1-yl)ethanone], the IC50 on TAK1-TAB1 fusion protein, in the test on pJNK in HCT-116 cells and with p-p38 in HCT-116 cells was 100 to 1000 nM each time.
With `CS(=O)(=O)N1CCC(n2cc(-c3cnc(N)c4oc(-c5cccc6cnccc56)cc34)cn2)CC1` [Example 80, 2-(isoquinolin-5-yl)-4-{1-[1-(methylsulfonyl)piperidin-4-yl]-1H-pyrazol-4-yl}furo[2,3-c]pyridin-7-amine], the IC50 is 100 to 1000 nM on TAK1-TAB1 fusion protein, less than 100 nM in the test with pJNK in HCT-116 cells and 100 to 1000 nM with p-p38 in HCT-116 cells.
Regarding `CC(=O)N1CCC(n2cc(-c3cnc(N)c4oc(-c5ccc6c(c5)C(=O)NC6)cc34)cn2)CC1` [Example 96, 6-{4-[1-(1-acetylpiperidin-4-yl)-1H-pyrazol-4-yl]-7-aminofuro[2,3-c]pyridin-2-yl}-2,3-dihydro-1H-isoindol-1-one], the half-inhibitory concentration (IC50) on TAK1-TAB1 fusion protein is 100 to 1000 nM; in the test on pJNK in HCT-116 cells it was 1000 to 10000 nM; with p-p38 in HCT-116 cells it was greater than 10000 nM.
